Where a name gives a salt, the structure may show the parent alone.
Key:
[1] = system: rats exposed to broad band noise for 24 hours at 110 dBSPL; assay: ABR after broad band noise, adenosine receptor agonists delivered onto the round window membrane (Experiment 3); format: in vivo, Wistar rats; conditions: for post-treatment ABR thresholds for clicks and pure tones: 48 hours after administration to the RWM, CGS-21680 200 μM; for post-treatment ABR thresholds for clicks and pure tones / ABR threshold recovery for clicks: adenosine 10 mM; for post-treatment ABR thresholds for clicks and pure tones / ABR threshold recovery for pure tones (up to) / ABR threshold recovery for clicks: CCPA 1 mM; for ABR threshold recovery for pure tones (up to) / ABR threshold recovery for clicks: single dose onto RWM 6 hours after noise, ABR 48 hours after treatment; for ABR threshold recovery for pure tones (up to): adenosine 10 mM (16 kHz)
Description: ABRs were measured in response to auditory clicks (a) and pure tones (b-e) before noise exposure (baseline), 30 minutes after noise exposure (pre-treatment) and 48 hours after administration of adenosine receptor agonists (post-treatment). All drugs were delivered onto the cochlear round window membrane (f) Threshold recovery is defined as ABR post-treatment minus ABR pre-treatment. Data are expressed as means±SEM (n=8). *p<0.05; **p<0.01; ***p<0.001; one way ANOVA with Tukey's multiple comparison test. AP, artificial perilymph (control); adenosine (10 mM), non-selective adenosine receptor agonist; CCPA (1 mM), selective A1 adenosine receptor agonist; CGS-21680 (0.2 mM), selective A2A receptor agonist.
Rats were exposed to a broadband noise presented for 24 hours at 90, 100, or 110 dBSPL. Noise exposures were carried out in a custom-built acoustic chamber (Shelburg Acoustics, Sydney, Australia) with internal speakers and external controls (sound generator and frequency selector). The sound levels in the cage were measured using a calibrated Rion NL-49 sound level meter to ensure minimal deviations of sound intensity. The animals had free access to food and water during the exposure.
Auditory thresholds in noise-exposed animals were measured using auditory brainstem responses (ABR), which represent the sound evoked potentials from the auditory nerve and brainstem auditory nuclei. ABR measurements were recorded at least 24 hours prior to noise exposure (baseline) and then 30 min after noise exposure (pre-treatment). Adenosine receptor agonists or vehicle control were then delivered to the cochlear round window (around 6 hours post-noise) and ABR measurement was then repeated 48 hours after drug administration (post-treatment). ABR measurements were performed in a sound attenuator chamber (Shelburg Acoustics, Sydney, Australia). The rats were anesthetized with ketamine (75 mg/kg) and xylazine (10 mg/kg) and their body temperature was maintained at 38° C. with a heating pad as described. ABRs were obtained by placing fine platinum electrodes subdermally at the mastoid region of the ear of interest (active electrode), scalp vertex (reference) and mastoid region of the opposite ear (ground electrode). A series of auditory clicks or pure tones (4-28 kHz) presented at varying intensity and thresholds generated electrical activity reflecting differing levels of auditory processing. The sound threshold of the ABR complex (waves I-IV) were determined by progressively attenuating the sound intensity until the waveform was no longer observed. The acoustic stimuli for ABR were produced, and the responses, recorded, using a Tucker-Davis Technologies auditory physiology workstation (Alachua, Fla., USA) controlled by computer-based digital signal processing package and software (BioSig, Alachua, Fla., USA). ABR potentials were evoked with digitally produced 5 ms tone pips (0.5 ms rise-fall time) at frequencies between 4 and 28 kHz in half-octave steps. Sound pressure level (SPL) was raised in 5 dB steps starting from 10 dB below threshold level to 90 dB SPL. Responses were averaged at each sound level (1024 repeats with stimulus polarity alternated), and response waveforms were discarded when peak-to-peak amplitude exceeded 15 μV (artefact reject). The ABR threshold was defined as the lowest intensity (to the nearest 5 dB) at which a response could be visually detected above the noise floor. The animals were euthanised after hearing assessment and the cochleae collected for immunohistochemical assessment of free radical damage.
Six hours after exposure to broad band noise (110 dBSPL for 24 hours), adenosine receptor agonists were delivered to the round window membrane (RWM) in the left cochlea, whilst the contralateral ear served as untreated control. […]

[2] = system: inner hair cell receptor potential; assay: Summating potential (SP) thresholds during cochlear perfusion, ambient noise levels; format: in vivo, Wistar rats; conditions: for effect on SP thresholds: RWM perfusion 90 minutes, adenosine 10 mM, CCPA 1 mM, rats at ambient noise
Description: SP thresholds, representing the inner hair cell receptor potential, were measured at frequencies ranging from 4-26 kHz prior to perfusion of artificial perilymph (AP; baseline), after AP perfusion and after perfusion with adenosine receptor agonists adenosine and CCPA. Data presented as mean±SEM (n=8). *p<0.05 **p<0.01, one way ANOVA with Tukey's multiple comparison test. AP, artificial perilymph (control); adenosine (10 mM), non-selective adenosine receptor agonist; CCPA (1 mM), selective A1 adenosine receptor agonist; CGS-21680 (0.2 mM), selective A2A receptor agonist; SCH-58261, selective A2A receptor antagonist.
(§1) As a foundation for the noise studies and to determine the general effect of selective adenosine receptor agonists on the cochlea, auditory function was first evaluated in control animals using the summating potential (SP; measure of the inner hair cell receptor potential) and the compound action potential (CAP; measure of the neural afferent output). This was undertaken to determine the background influence of adenosine receptor activation in the normal cochlea as a platform for the studies in noise-exposed animals.
Animals were anaesthetized (sodium pentobarbital; 60 mg/kg i.p.) and placed on a thermostatically regulated blanket connected to a remote homeothermal control unit (Harvard Apparatus, Holliston, Mass., USA) to maintain stable body temperature (37.5° C.) via a rectal thermocouple probe (Harvard Apparatus). The head of the animal was placed on a heated (38° C. surface temperature) stereotaxic head-holder, connected to a heat block temperature controller (Bio-Medical Engineering Services, University of Auckland, New Zealand). The animals were artificially ventilated and the auditory bulla was exposed using a ventrolateral approach. The perfusion line was inserted close to the round window membrane (RWM). The RWM was perfused with test solutions containing A1, or A2A adenosine receptor agonists at […] using a Harvard Apparatus Series PHD 22/2000 syringe pump. Adenosine receptor agonists adenosine (10 mM), CCPA (1 mM), CGS-21680 (200 μM), alone or in combination with adenosine receptor antagonist SCH-58261 (200 μM), were perfused for 90 minutes. Sound-evoked cochlear responses (CAP and SP) to pure tone stimuli (4-28 kHz) were recorded from a silver wire electrode placed onto the cochlear round window. These responses were measured using a Tucker-Davis System II for the presentation of tone stimuli and acquisition of the electrical potentials via a Grass P16 Pre-amplifier.

[3] = system: neural afferent output of the cochlea; assay: Compound action potential (CAP) thresholds during cochlear perfusion, ambient noise levels; format: in vivo, Wistar rats; conditions: RWM perfusion; data not shown
Text: as §1
Animals were anaesthetized (sodium pentobarbital; 60 mg/kg i.p.) and placed on a thermostatically regulated blanket connected to a remote homeothermal control unit (Harvard Apparatus, Holliston, Mass., USA) to maintain stable body temperature (37.5° C.) via a rectal thermocouple probe (Harvard Apparatus). The head of the animal was placed on a heated (38° C. surface temperature) stereotaxic head-holder, connected to a heat block temperature controller (Bio-Medical Engineering Services, University of Auckland, New Zealand). […] Sound-evoked cochlear responses (CAP and SP) to pure tone stimuli (4-28 kHz) were recorded from a silver wire electrode placed onto the cochlear round window. These responses were measured using a Tucker-Davis System II for the presentation of tone stimuli and acquisition of the electrical potentials via a Grass P16 Pre-amplifier.

[4] = system: nitrotyrosine immunoreactivity in the noise-exposed cochlea; assay: Nitrotyrosine immunohistochemistry, semi-quantitative, noise-exposed cochleae treated topically (Experiment 3); format: in vivo, Wistar rats; conditions: middle turn, adenosine 10 mM or CCPA 1 mM onto RWM, p<0.01
Text: No immunostaining was detected when the nitrotyrosine antibody was omitted. (B). Semi-quantitative analysis of nitrotyrosine immunoreactivity. Abbreviations: cc, Claudius cells; dc, Deiters' cells; hc, Hensen's cells; idc, interdental cells; is, inner sulcus cells; ihc, inner hair cells; ohc, outer hair cells; opc, outer pillar cells. Scale bars: 50 μm. Data are expressed as means±SEM (n=4 animals per group). **p<0.01; ***p<0.001; one way ANOVA with Tukey's multiple comparison test.
Nitrotyrosine formation in the noise-exposed cochlea was assessed by immunohistochemistry. […] Immunoperoxidase reaction was detected using a secondary biotin-conjugated goat anti-rabbit IgG, followed by reaction visualisation using an avidin-biotin-peroxidase complex (ABC kit, Vector Laboratories) and diaminobenzidine (DAB kit, Vector). […] Images were analyzed using identical acquisition parameters and immunolabeling was semi-quantified using ImageJ software (v.1.38x, NIH, USA). […] Regions of interest were selected and their immunostaining intensity histograms obtained and expressed as mean pixel intensity after greyscale conversion. Between 15 and 32 images of the middle cochlear turn were analyzed in each group (n=4 animals per group) in a double-blind manner.

noise-exposed cochlea = conditions: pre-treatment (prophylactic), reference [6], cited from earlier work

Nc1ncnc2c1ncn2[C@@H]1O[C@H](CO)[C@@H](O)[C@H]1O [adenosine]
post-treatment ABR thresholds for clicks and pure tones [1]: markedly improved ABR thresholds | ABR threshold recovery for pure tones (up to) [1]: up to 19 dB | ABR threshold recovery for clicks [1]: 18 dB | effect on SP thresholds [2]: did not affect SP thresholds | effect on CAP thresholds [3]: not altered | reduction of nitrotyrosine mean pixel intensity compared to AP control [4]: 30-42%

Nc1nc2c(cnn2CCc2ccccc2)c2nc(-c3ccco3)nn12 [SCH-58261, 7-(2-phenylethyl)-5-amino-2-(2-furyl)-pyrazolo-[4,3-e]-1,2,4-triazolo[1,5-c]pyrimidine]
effect on the CGS-21680 reduction of SP thresholds ([2]; SCH-58261 200 μM in combination with CGS-21680): inhibited

C[C@H](Cc1ccccc1)Nc1ncnc2c1ncn2[C@@H]1O[C@H](CO)[C@@H](O)[C@H]1O [R-PIA, R—N6-phenylisopropyladenosine]
survival of the outer hair cells (noise-exposed cochlea): increased survival of the outer hair cells | preservation of auditory thresholds (noise-exposed cochlea; topical to RWM): better preservation of auditory thresholds

CCNC(=O)[C@H]1O[C@@H](n2cnc3c(N)nc(NCCc4ccc(CCC(=O)O)cc4)nc32)[C@H](O)[C@@H]1O [CGS-21680, 2-p-(2-Carboxyethyl)phenethylamino-5′-N-ethylcarboxamidoadenosine hydrochloride hydrate]
post-treatment ABR thresholds for clicks and pure tones [1]: remained unchanged | threshold recovery ([1]; CGS-21680 200 μM onto RWM 6 hours after noise, FIG. 11(f)): did not affect threshold recovery | reduction of SP thresholds ([2]; at 16 kHz, CGS-21680 200 μM RWM perfusion, p<0.01): 5 dB

OC[C@H]1O[C@@H](n2cnc3c(NC4CCCC4)nc(Cl)nc32)[C@H](O)[C@@H]1O [CCPA, 2-Chloro-N^6-cyclopentyladenosine]
post-treatment ABR thresholds for clicks and pure tones [1]: markedly improved ABR thresholds | ABR threshold recovery for pure tones (up to) [1]: up to 20 dB | ABR threshold recovery for clicks [1]: 20 dB | effect on SP thresholds [2]: did not affect SP thresholds | reduction of nitrotyrosine mean pixel intensity compared to AP control [4]: 22-45%

Source: patent US20110207689A1, “THE TREATMENT OF HEARING LOSS” (Auckland UniServices Limited, priority 2008, published 2011)
